Experimental data reported in the NIST ThermoML archive (doi:10.1021/je8009545).

Assay: xn = mol fraction of the nth substance listed
Conditions: Gas; for mass density: Gas pipette; for viscosity: Oscillating disk viscometry

COC [dimethyl ether] + N#N
Conditions | mass density [kg/m3] | viscosity [mPa·s]
373.15 K, 2505 kPa, x1 = 1 | 51.25 | 0.01219
373.15 K, 2875 kPa, x1 = 1 | 67.49 | 0.01247
373.15 K, 2895 kPa, x1 = 0.82 | 51.12 | 0.01352
373.15 K, 3005 kPa, x1 = 0.281 | 33.02 | 0.01823
373.15 K, 3049 kPa, x1 = 1 | 74.07 | 0.01261
373.15 K, 3065 kPa, x1 = 0.522 | 40.84 | 0.01599
398.15 K, 101 kPa, x1 = 0.246 | 0.853 | 0.01917
398.15 K, 101 kPa, x1 = 0.525 | 0.885 | 0.01617
398.15 K, 101 kPa, x1 = 0.78 | 0.727 | 0.01397
398.15 K, 101 kPa, x1 = 1 | 0.948 | 0.01234
398.15 K, 300 kPa, x1 = 1 | 4.392 | 0.01237
398.15 K, 310 kPa, x1 = 0.246 | 2.938 | 0.01921
398.15 K, 315 kPa, x1 = 0.78 | 4.107 | 0.01399
398.15 K, 317 kPa, x1 = 0.525 | 3.633 | 0.01622
398.15 K, 516 kPa, x1 = 0.525 | 5.877 | 0.01623
398.15 K, 519 kPa, x1 = 0.246 | 5.15 | 0.01919
398.15 K, 531 kPa, x1 = 1 | 7.678 | 0.01239
398.15 K, 533 kPa, x1 = 0.78 | 7.077 | 0.01401
398.15 K, 992 kPa, x1 = 1 | 15.1 | 0.01244
398.15 K, 1009 kPa, x1 = 0.78 | 13.52 | 0.0141
398.15 K, 1020 kPa, x1 = 0.525 | 11.91 | 0.01629
398.15 K, 1048 kPa, x1 = 0.246 | 10.02 | 0.01926
398.15 K, 2018 kPa, x1 = 0.525 | 23.95 | 0.01651
398.15 K, 2030 kPa, x1 = 0.246 | 19.75 | 0.01943
398.15 K, 2030 kPa, x1 = 0.78 | 28.37 | 0.01433
398.15 K, 2085 kPa, x1 = 1 | 34.47 | 0.01274
398.15 K, 2973 kPa, x1 = 0.246 | 29.35 | 0.0196
398.15 K, 2985 kPa, x1 = 1 | 54.66 | 0.01317
398.15 K, 2986 kPa, x1 = 0.78 | 44.58 | 0.01465
398.15 K, 3015 kPa, x1 = 0.525 | 36.43 | 0.01675
398.15 K, 3735 kPa, x1 = 0.78 | 58.58 | 0.015
398.15 K, 3839 kPa, x1 = 0.246 | 37.95 | 0.01974
398.15 K, 3905 kPa, x1 = 0.525 | 47.93 | 0.01701
398.15 K, 3965 kPa, x1 = 1 | 87.68 | 0.0141
398.15 K, 4480 kPa, x1 = 1 | 112.3 | 0.01504
398.15 K, 4569 kPa, x1 = 0.78 | 77.25 | 0.0155
398.15 K, 4620 kPa, x1 = 1 | 122.4 | 0.01543
398.15 K, 4730 kPa, x1 = 0.525 | 59.49 | 0.01731
398.15 K, 4860 kPa, x1 = 0.246 | 48.5 | 0.01995
423.15 K, 101 kPa, x1 = 0.272 | 0.662 | 0.01978
423.15 K, 101 kPa, x1 = 0.527 | 0.694 | 0.01721
423.15 K, 101 kPa, x1 = 0.764 | 1.072 | 0.01516
423.15 K, 101 kPa, x1 = 1 | 1.009 | 0.01332
423.15 K, 310 kPa, x1 = 1 | 4.289 | 0.01333
423.15 K, 314 kPa, x1 = 0.272 | 2.901 | 0.01984
423.15 K, 316 kPa, x1 = 0.527 | 3.343 | 0.01723
423.15 K, 320 kPa, x1 = 0.764 | 4.447 | 0.01522
423.15 K, 505 kPa, x1 = 0.527 | 5.456 | 0.01726
423.15 K, 505 kPa, x1 = 1 | 6.812 | 0.01335
423.15 K, 520 kPa, x1 = 0.764 | 6.591 | 0.01524
423.15 K, 529 kPa, x1 = 0.272 | 4.699 | 0.01986
423.15 K, 985 kPa, x1 = 1 | 13.75 | 0.01342
423.15 K, 1021 kPa, x1 = 0.764 | 12.33 | 0.0153
423.15 K, 1040 kPa, x1 = 0.272 | 9.555 | 0.01994
423.15 K, 1047 kPa, x1 = 0.527 | 11.35 | 0.01734
423.15 K, 2013 kPa, x1 = 0.527 | 22.17 | 0.01753
423.15 K, 2022 kPa, x1 = 1 | 30.21 | 0.0137
423.15 K, 2030 kPa, x1 = 0.272 | 18.92 | 0.02008
423.15 K, 2060 kPa, x1 = 0.764 | 25.8 | 0.01558
423.15 K, 2926 kPa, x1 = 0.764 | 38.25 | 0.01581
423.15 K, 2955 kPa, x1 = 0.272 | 27.91 | 0.02018
423.15 K, 2995 kPa, x1 = 0.527 | 33.84 | 0.01769
423.15 K, 3004 kPa, x1 = 1 | 48.47 | 0.01413
423.15 K, 3970 kPa, x1 = 0.764 | 54.49 | 0.01621
423.15 K, 3973 kPa, x1 = 0.527 | 45.63 | 0.01796
423.15 K, 4000 kPa, x1 = 0.272 | 37.87 | 0.02038
423.15 K, 4015 kPa, x1 = 1 | 71.3 | 0.01477
423.15 K, 4495 kPa, x1 = 1 | 86.57 | 0.01521
423.15 K, 4873 kPa, x1 = 0.527 | 56.58 | 0.01822
423.15 K, 4894 kPa, x1 = 0.764 | 69.38 | 0.01664
423.15 K, 4911 kPa, x1 = 0.272 | 46.7 | 0.02057
423.15 K, 4912 kPa, x1 = 1 | 99.15 | 0.01568
